Assays:
expanded NK cells = assay: PHA-induced cytokine assay, expanded NK cells; type: cell-based; details: expanded NK cells (N=18), 10^6 cells, 1 hour stimulation with PHA, supernatant
From the text: (§1) Use of tumor cells to test effector function of therapeutic immune cells has been a standard practice. These target cells add biological variabilities to the outcomes of assay. Also, this assay set up is more tedious and complicated adding up variabilities due to target condition, plate set up, person-to-person difference in techniques. The therapeutic response of NK cells via comparison of a PHA cytokine assay against a widely use tumor cell (K562) mediated cytokine assay. The levels of cytokine indicate potency of the response from the NK cells.
(§2) After establishing an optimal number of cells (10^6) for the assay, multiple donors of fresh peripheral blood NK cells (N=10) and expanded NK cells (N=18) were stimulated with PHA to produce cytokines, and after 1 hour cytokine in the supernatant was assessed. Expression of most cytokines are similar between the two types of NK cells, but several cytokines and chemokines related to NK cell function were highly differentially expressed in response to stimulation (FIG. 6). Next the expression of 6 cytokines in fresh and expanded NK cells was measured after 1 hour stimulation with PHA. Pentraxin-3 (mean 1,062 vs 7), IL-8 (mean 821 vs 11), and Chitinase 3-like 1 (mean 620 vs 7) were highly overexpressed in fresh NK cells compared to expanded NK cells, and IFN-γ (mean 15 vs 105), IL-2 (mean 3 vs 141), and CD30 (mean9 vs. 156) were highly overexpressed in expanded NK cells compared to fresh NK cells (FIG. 7). On the basis of overexpression alone, a cut-off of expressing 10 pg/mL of both IFN-γ and IL-2 has 94% specificity […] and 89% sensitivity (16 of 18) in differentiating expanded NK cells from fresh peripheral blood NK cells (FIG. 8).

[1] = test system: fresh peripheral blood NK cells; assay: PHA-induced cytokine assay, fresh peripheral blood NK cells; type: cell-based; details: fresh NK cells (N=10), 10^6 cells, 1 hour stimulation with PHA, supernatant
From the text: as §1, §2

## phytohemagglutinin [PHA]
Expanded NK cells
  CD30 expression (mean): 156
  Chitinase 3-like 1 expression (mean): 7
  IFN-γ expression (mean): 105
  IL-2 expression (mean): 141
  IL-8 expression (mean): 11
  Pentraxin-3 expression (mean): 7
[1]
  CD30 expression (mean): 9
  Chitinase 3-like 1 expression (mean): 620
  IFN-γ expression (mean): 15
  IL-2 expression (mean): 3
  IL-8 expression (mean): 821
  Pentraxin-3 expression (mean): 1,062
